Assays:
CTX-M-14 = CTX-M-14 (Escherichia coli, UniProt Q9L5C7); test: Inhibition of nitrocefin cleavage by purified CTX-M-14; type: biochemical; conditions: nitrocefin reporter substrate, purified enzyme; read-out: Ki (CTX-M-14, NCF)
Description: (§1) Purified enzymes were mixed with various concentrations of inhibitors in reaction buffer and incubated for 10 min at room temperature. Nitrocefin was added and substrate cleavage profiles were recorded at 490 nm every 10 sec for 10 min.

OXA-48 = OXA-48 (Klebsiella pneumoniae, UniProt Q6XEC0); test: Inhibition of nitrocefin cleavage by purified OXA-48; type: biochemical; conditions: nitrocefin reporter substrate, purified enzyme; read-out: Ki (OXA-48, NCF)
Description: as §1

EC1010 (CMY-6) [1] = test: Potentiation of aztreonam, strain EC1010; type: cell-based
SHV-12 = SHV-12 (Klebsiella pneumoniae, UniProt P0AD64, E235K/G234S/L31Q); test: Inhibition of nitrocefin cleavage by purified SHV-12; type: biochemical; conditions: nitrocefin reporter substrate, purified enzyme; read-out: Ki (SHV-12, NCF)
Summary of the method: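 10 min RT preincubation, enzyme with inhibitor series in reaction buffer. Substrate nitrocefin; kinetic read 490 nm, 10 sec intervals, 10 min total.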

CMY-2 = CMY-2 (Klebsiella pneumoniae, UniProt Q48434); test: Inhibition of nitrocefin cleavage by purified CMY-2; type: biochemical; conditions: nitrocefin reporter substrate, purified enzyme; read-out: Ki (CMY-2, NCF)
Description: as §1

PAM1032/KPC-2 = test: Biapenem potentiation in PAM1032/KPC-2 (MexAB-OprM overexpressed); type: cell-based, Pseudomonas aeruginosa; conditions: BLI potency to decrease biapenem MIC 64-fold, 32 to 0.5 μg/ml; efflux proficient strain
Description: (§2) Efflux of BLIs from Pseudomonas aeruginosa by the MexAB-OprM efflux pump was also evaluated. […] Due to expression of KPC-2 both strains became resistant to biapenem. […] Potency of BLIs to potentiate biapenem in these strains was determined. […] The ratio of MPC64 values for each BLI in PAM1032/KPC-2 (efflux proficient) and PAM1154/KPC-2 (efflux deficient) was determined to generate the Efflux Index (EI).

ec308 (SHV-5) [2] = test: Potentiation of aztreonam, strain ec308; type: cell-based; conditions: minimum BLI concentration inhibiting growth with 4 μg/mL aztreonam
ec308 (SHV-5) [3] = test: Potentiation of tigemonam, strain ec308; type: cell-based; conditions: minimum BLI concentration inhibiting growth with 4 μg/mL tigemonam
PAM1154/KPC-2 = test: Biapenem potentiation in PAM1154/KPC-2 (MexAB-OprM lacking); type: cell-based, Pseudomonas aeruginosa
Description: as §2

KP1009 (CTX-M-15) [4] = test: Potentiation of tigemonam, strain KP1009; conditions: minimum BLI concentration inhibiting growth with 4 μg/mL tigemonam
KP1005 (CTX-M-14) = test: Potentiation of aztreonam, strain KP1005; type: cell-based
KP1004 (K-2) = test: Potentiation of aztreonam, strain KP1004; type: cell-based; conditions: minimum BLI concentration inhibiting growth with 4 μg/mL aztreonam
ec302 (TEM-10) [5] = test: Potentiation of aztreonam, strain ec302; type: cell-based
ECL1002 = test: Potentiation of aztreonam, strain ECL1002; type: cell-based; conditions: minimum BLI concentration inhibiting growth with 4 μg/mL aztreonam
ec302 (TEM-10) [6] = test: Potentiation of tigemonam, strain ec302; type: cell-based
KP1009 (CTX-M-15) [7] = test: Potentiation of aztreonam, strain KP1009; type: cell-based
EC1010 (CMY-6) [8] = type: cell-based
P99 = P99 (Enterobacter cloacae, UniProt P05364); test: Inhibition of nitrocefin cleavage by purified P99; type: biochemical; conditions: nitrocefin reporter substrate, purified enzyme; read-out: Ki (P99, NCF)
Description: as §1

Sequence of OXA-48 (Q6XEC0 23-265 limits assumed): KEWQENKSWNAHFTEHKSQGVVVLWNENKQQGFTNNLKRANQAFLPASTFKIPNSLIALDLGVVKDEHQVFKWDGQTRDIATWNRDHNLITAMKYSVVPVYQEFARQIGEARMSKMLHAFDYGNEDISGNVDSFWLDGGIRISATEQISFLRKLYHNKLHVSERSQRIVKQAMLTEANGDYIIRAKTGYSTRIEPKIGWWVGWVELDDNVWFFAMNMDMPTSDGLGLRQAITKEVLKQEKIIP
Sequence of CMY-2 (Q48434 21-381, species assumed): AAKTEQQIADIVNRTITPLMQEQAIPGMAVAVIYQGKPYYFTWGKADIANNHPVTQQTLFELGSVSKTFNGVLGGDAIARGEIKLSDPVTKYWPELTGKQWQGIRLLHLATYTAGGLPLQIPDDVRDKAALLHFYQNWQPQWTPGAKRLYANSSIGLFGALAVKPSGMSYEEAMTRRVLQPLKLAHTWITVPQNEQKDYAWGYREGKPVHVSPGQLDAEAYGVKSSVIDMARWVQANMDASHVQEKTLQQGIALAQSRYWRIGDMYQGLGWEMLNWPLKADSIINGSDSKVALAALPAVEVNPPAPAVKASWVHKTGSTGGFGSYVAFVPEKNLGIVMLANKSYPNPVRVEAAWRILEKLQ
Sequence of P99 (P05364 21-381): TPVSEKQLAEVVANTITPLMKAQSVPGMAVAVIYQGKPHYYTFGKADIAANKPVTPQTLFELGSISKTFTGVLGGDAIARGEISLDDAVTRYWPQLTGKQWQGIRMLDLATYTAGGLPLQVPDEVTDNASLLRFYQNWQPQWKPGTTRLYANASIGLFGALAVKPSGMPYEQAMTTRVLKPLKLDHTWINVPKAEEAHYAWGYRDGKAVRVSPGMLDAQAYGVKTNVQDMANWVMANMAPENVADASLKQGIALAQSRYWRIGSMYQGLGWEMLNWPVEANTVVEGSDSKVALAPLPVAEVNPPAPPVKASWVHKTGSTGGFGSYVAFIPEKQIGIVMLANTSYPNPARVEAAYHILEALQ
Sequence of SHV-12 (P0AD64 22-286 L31Q/G234S/E235K): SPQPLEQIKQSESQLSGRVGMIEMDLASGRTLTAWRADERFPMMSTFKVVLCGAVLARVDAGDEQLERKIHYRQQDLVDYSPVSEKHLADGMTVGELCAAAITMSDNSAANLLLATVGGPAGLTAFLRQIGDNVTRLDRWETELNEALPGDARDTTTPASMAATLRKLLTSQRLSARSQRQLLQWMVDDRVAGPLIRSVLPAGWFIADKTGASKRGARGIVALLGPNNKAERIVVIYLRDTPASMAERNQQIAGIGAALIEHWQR
Sequence of CTX-M-14 (Q9L5C7 entry or part of it): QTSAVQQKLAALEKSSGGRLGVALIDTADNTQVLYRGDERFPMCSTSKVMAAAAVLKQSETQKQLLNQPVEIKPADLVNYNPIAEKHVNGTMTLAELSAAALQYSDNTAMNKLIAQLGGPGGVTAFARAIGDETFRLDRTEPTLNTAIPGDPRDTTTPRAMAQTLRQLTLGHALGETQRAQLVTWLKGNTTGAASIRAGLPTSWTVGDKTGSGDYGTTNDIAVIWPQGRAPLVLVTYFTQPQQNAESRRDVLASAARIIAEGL

NC(=O)C(=O)N[C@H]1Cc2cccc(C(=O)O)c2OB1O [Compound 17, (R)-3-(2-amino-2-oxoacetamido)-2-hydroxy-3,4-dihydro-2H-benzo[e][1,2]oxaborinine-8-carboxylic acid]
Ki (CTX-M-14): 1 to 10 nM | Ki (OXA-48): 1 to 10 nM | AZT MPC4 CMY-6 EC1010 (EC1010 (CMY-6) [1]): Y (key: X = MIC of less than 1 μg/mL; Y = MIC of 1 μg/mL to 10 μg/mL; Z = MIC of greater than 10 μg/mL) | Ki (SHV-12): 1 to 10 nM | Ki (CMY-2): 1 to 10 nM | PAM1032/KPC-2 Biapenem MPC64 (PAM1032/KPC-2): Z (Z Greater than 40) | AZT MPC4 SHV-5 ec308 (ec308 (SHV-5) [2]): X (X = MIC of less than 1 μg/mL) | TIG MPC4 SHV-5 ec308 (ec308 (SHV-5) [3]): Y (Y = MIC of 1 μg/mL to 10 μg/mL) | PAM1154/KPC-2 Biapenem MPC64 (PAM1154/KPC-2): X (key: X = Less than 10; Y = 10 to 40; Z Greater than 40) | TIG MPC4 CTX-M-15 KP1009 (KP1009 (CTX-M-15) [4]): Y (Y = MIC of 1 μg/mL to 10 μg/mL) | AZT MPC4 CTX-M-14 KP1005 (KP1005 (CTX-M-14)): Y (key: X = MIC of less than 1 μg/mL; Y = MIC of 1 μg/mL to 10 μg/mL; Z = MIC of greater than 10 μg/mL) | AZT MPC4 K-2 KP1004 (KP1004 (K-2)): Y (Y = MIC of 1 μg/mL to 10 μg/mL) | AZT MPC4 TEM-10 ec302 (ec302 (TEM-10) [5]): X (key: X = MIC of less than 1 μg/mL; Y = MIC of 1 μg/mL to 10 μg/mL; Z = MIC of greater than 10 μg/mL) | AZT MPC4 ECL1002 (ECL1002): Y (Y = MIC of 1 μg/mL to 10 μg/mL) | TIG MPC4 TEM-10 ec302 (ec302 (TEM-10) [6]): X (key: X = MIC of less than 1 μg/mL; Y = MIC of 1 μg/mL to 10 μg/mL; Z = MIC of greater than 10 μg/mL) | AZT MPC4 CTX-M-15 KP1009 (KP1009 (CTX-M-15) [7]): Y (key: X = MIC of less than 1 μg/mL; Y = MIC of 1 μg/mL to 10 μg/mL; Z = MIC of greater than 10 μg/mL) | TIG MPC4 CMY-6 EC1010 (EC1010 (CMY-6) [8]): X (key: X = MIC of less than 1 μg/mL; Y = MIC of 1 μg/mL to 10 μg/mL; Z = MIC of greater than 10 μg/mL) | Ki (P99): 1 to 10 nM
